# Measured values: paper PMC3454369, “Functional Redundancy of Class I Phosphoinositide 3-Kinase (PI3K) Isoforms in Signaling Growth Factor-Mediated Human Neutrophil Survival” (PLoS ONE, 2012)
# Where two headings read alike, the source gives them in different places.
# Tests used:
# [1] = tested on: Human neutrophils; test: rhGM-CSF-modulated human neutrophil apoptosis, annexin V/PI flow cytometry; assay type: cell-based; conditions: no GM-CSF; 20 h (also 6 h); LY294002 10 µM
# [2] = tested on: Human neutrophils; test: Morphologic analysis of human neutrophil apoptosis (light microscopy of cytospins); assay type: cell-based; conditions: rhGM-CSF 10 ng/ml, 20 h; for Cytoplasmic vacuolation of human neutrophils: light microscopy, PI-103 at 1 µM or above, LY294002 10 µM
# [3] = tested on: Peripheral blood neutrophils from exacerbating COPD patients; test: Ex vivo apoptosis of peripheral blood neutrophils from patients with exacerbation of COPD, annexin V/PI flow cytometry; assay type: cell-based, human; conditions: 20 hours culture; for Effect on reduced spontaneous apoptosis of neutrophils from exacerbating COPD patients: ex vivo, 20 min pre-incubation
# [4] = tested on: Human neutrophils; test: rhGM-CSF-modulated human neutrophil apoptosis, annexin V/PI flow cytometry; assay type: cell-based; conditions: rhGM-CSF 10 ng/ml; for Effect on rhGM-CSF-mediated human neutrophil survival: 20 h
# Experimental: To examine the effects of small molecule PI3K inhibitors on rhGM-CSF (10 ng/ml) -modulated apoptosis, neutrophils (5×10^6/ml) were re-suspended in Iscove’s modified Dulbecco medium (IMDM) supplemented with 10% autologous serum, 100 U/mL penicillin and 100 µg/mL streptomycin in non-tissue culture treated flat bottom Falcon Flexiwell plates in a humidified 5% CO2 atmosphere at 37°C.
# [5] = tested on: PKB (Akt) phosphorylation; test: Western blot for rhGM-CSF-induced PKB (Akt Ser473) phosphorylation in human neutrophils; assay type: cell-based; conditions: 20 min pre-incubation, rhGM-CSF 10 ng/ml 10 min
# Experimental: Neutrophils were suspended at 5×10^6/ml and 0.5 ml aliquots were pre-incubated for 20 minutes with PI3K inhibitors at 37°C prior to treatment with GM-CSF 10 ng/ml for 10 min. The cells were washed with ice-cold phosphate-buffered saline and pelleted and resuspended in 50 µl of cold lysis buffer (20 mM Tris-HCl (pH 7.5), 150 mM NaCl, 1 mM EDTA, 1 mM EGTA, 1% Triton X-100, 2.5 mM sodium pyrophosphate, 1 mM β-glycerophosphate, 1 mM PMSF, 1 mM sodium fluoride, 2 mM sodium orthovanadate, 10 µg/ml leupeptin, 10 µg/ml aprotinin) and incubated on ice for 10 minutes. The Triton-insoluble fraction was pelleted by centrifugation at 10 000 g for 15 min at 4°C. The protein concentration of the supernatant was determined using a colorimetric assay (bicinchoninic acid; BCA, BIO Rad Laboratories). SDS sample buffer was added to each neutrophil lysate and heated to 99°C for 5 min. 30 µg of protein/well was loaded on to each 10% SDS-polyacrylamide gel and subjected to electrophoresis at 150 V and transferred to a PVDF Immobilon membrane using a semi-dry transfer system at 130 mA for 90 minutes. The membrane was blocked for 1 hour with 5% non-fat dry milk in Tris-HCl buffered saline containing 0.1% (w/v) Tween 20 then immunoblotted overnight at 4°C in TBS-Tween-20 with primary monoclonal antibody to total Akt rabbit mAb or Phospho-Akt (Ser^473) rabbit mAb (Cell Signaling Technology 40585 and 9272 respectively) at a dilution of 1∶1000 in TBS-Tween 20 with 5% Bovine Serum Albumin. The membrane was washed three times in TBS-Tween 20 and incubated with ECL HRP-conjugated donkey anti-rabbit IgG (Fab2 fragment; GE Healthcare) at a dilution of 1∶10 000 in TBS-Tween 20 for 1 hour at room temperature. Membranes were developed using ECL-Plus kit (GE Healthcare).
# Figure 5 Combined inhibition of all Class IA PI3Ks abrogates rhGM-CSF mediated PKB phosphorylation. […] Western blots from the experiments describe in B. above were scanned and analyzed using the Aida Image Analyzer 3.27 software package. […]
# [6] = tested on: Murine peripheral blood neutrophils; conditions: for Effect on constitutive murine neutrophil apoptosis: no rmGM-CSF, 8 h and 4 h
# [7] = tested on: Human neutrophils; test: fMLP-stimulated neutrophil oxidative burst (luminol/HRP chemiluminescence); assay type: cell-based; conditions: fMLP 100 nM
# Experimental: All PI3K inhibitors were dissolved in dimethyl sulfoxide (DMSO) and stored at −20°C. […] The concentration response curves for NVS-PI3-3 and NVS-PI3-4 on the neutrophil respiratory burst generated as described in [10] are shown in Figure 2.  Figure 2 Effect of NVS-PI3-4 and NVS-PI3-3 on Neutrophil Oxidative Burst. Human neutrophils were suspended at 4×10^6/ml in HBSS at 37°C and either primed with TNFα 10 ng/ml or treated with vehicle control, prior to the addition of NVS-PI3-4 (A) or NVS-PI3-3 (B) at the indicated concentrations. […] Triangular symbols represent TNFα-primed cells; unprimed cells depicted by squares.
# [8] = target: p110β (Homo sapiens, UniProt P42338); test: biochemical
# [9] = target: T1, p110α (Homo sapiens, UniProt P42336); test: biochemical
# [10] = target: T2, p110δ (Homo sapiens, UniProt O00329); test: biochemical
# [11] = Cell accessibility of the inhibitor (footnote of Table 3); set-up: key: *: Poor cell accessibility; conditions: footnote mark at the inhibitor's name
# [12] = tested on: PI3K Class I isoforms; set-up: method as in PMID 20179189; conditions: competitive inhibition; cited from earlier work
# [13] = target: T2, p110δ; conditions: in vitro kinase assay; data compiled from published work; cited from earlier work
# [14] = target: T1, p110α; conditions: in vitro kinase assay; data compiled from published work; cited from earlier work
# [15] = target: T3, p110γ (Homo sapiens, UniProt P48736); conditions: in vitro kinase assay; data compiled from published work; cited from earlier work
# [16] = target: T3, p110γ; test: biochemical
# [17] = C57BL/6, rmGM-CSF 0.1 ng/ml, 8 hours
# [18] = C57BL/6, rmGM-CSF 0.1 ng/ml, 8 hours, concentration-dependent
# [19] = inhibitor 3 µM, used individually
# [20] = TNFα 10 ng/ml-primed human neutrophils, read-out: Primed IC50, neutrophil oxidative burst
# [21] = unprimed human neutrophils, read-out: Unprimed IC50, neutrophil oxidative burst
# [22] = inhibitor 1 µM, used individually
# T1 sequence (P42336 whole entry, species assumed): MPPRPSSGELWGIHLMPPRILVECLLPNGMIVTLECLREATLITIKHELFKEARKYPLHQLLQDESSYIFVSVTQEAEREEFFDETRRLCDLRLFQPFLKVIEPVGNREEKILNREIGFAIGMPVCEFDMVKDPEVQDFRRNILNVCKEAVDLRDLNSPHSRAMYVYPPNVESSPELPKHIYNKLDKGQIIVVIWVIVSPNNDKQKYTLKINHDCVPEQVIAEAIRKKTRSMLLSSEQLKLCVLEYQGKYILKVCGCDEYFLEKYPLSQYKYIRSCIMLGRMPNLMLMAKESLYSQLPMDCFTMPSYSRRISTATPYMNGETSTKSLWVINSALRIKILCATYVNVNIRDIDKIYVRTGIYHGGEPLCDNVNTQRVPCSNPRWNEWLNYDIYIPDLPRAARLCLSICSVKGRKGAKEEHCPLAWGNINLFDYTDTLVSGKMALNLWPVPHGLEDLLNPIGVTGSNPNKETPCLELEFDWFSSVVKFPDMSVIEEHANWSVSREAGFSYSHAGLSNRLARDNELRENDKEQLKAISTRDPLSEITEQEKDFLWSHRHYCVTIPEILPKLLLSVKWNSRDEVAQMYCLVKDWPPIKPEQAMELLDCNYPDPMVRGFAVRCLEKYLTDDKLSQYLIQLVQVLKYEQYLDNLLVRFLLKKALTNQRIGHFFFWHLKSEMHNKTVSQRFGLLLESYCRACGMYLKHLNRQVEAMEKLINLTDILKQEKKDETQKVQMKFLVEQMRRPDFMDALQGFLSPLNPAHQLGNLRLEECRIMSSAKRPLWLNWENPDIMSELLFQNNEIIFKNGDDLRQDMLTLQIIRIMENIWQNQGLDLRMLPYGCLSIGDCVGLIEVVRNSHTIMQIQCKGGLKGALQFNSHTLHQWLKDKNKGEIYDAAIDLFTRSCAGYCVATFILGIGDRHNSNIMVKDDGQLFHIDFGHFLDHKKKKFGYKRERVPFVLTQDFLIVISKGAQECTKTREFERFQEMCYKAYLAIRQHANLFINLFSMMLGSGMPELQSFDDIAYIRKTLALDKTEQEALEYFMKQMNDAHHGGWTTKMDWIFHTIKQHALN
# T1 sequence (P27986 whole entry partner, species assumed): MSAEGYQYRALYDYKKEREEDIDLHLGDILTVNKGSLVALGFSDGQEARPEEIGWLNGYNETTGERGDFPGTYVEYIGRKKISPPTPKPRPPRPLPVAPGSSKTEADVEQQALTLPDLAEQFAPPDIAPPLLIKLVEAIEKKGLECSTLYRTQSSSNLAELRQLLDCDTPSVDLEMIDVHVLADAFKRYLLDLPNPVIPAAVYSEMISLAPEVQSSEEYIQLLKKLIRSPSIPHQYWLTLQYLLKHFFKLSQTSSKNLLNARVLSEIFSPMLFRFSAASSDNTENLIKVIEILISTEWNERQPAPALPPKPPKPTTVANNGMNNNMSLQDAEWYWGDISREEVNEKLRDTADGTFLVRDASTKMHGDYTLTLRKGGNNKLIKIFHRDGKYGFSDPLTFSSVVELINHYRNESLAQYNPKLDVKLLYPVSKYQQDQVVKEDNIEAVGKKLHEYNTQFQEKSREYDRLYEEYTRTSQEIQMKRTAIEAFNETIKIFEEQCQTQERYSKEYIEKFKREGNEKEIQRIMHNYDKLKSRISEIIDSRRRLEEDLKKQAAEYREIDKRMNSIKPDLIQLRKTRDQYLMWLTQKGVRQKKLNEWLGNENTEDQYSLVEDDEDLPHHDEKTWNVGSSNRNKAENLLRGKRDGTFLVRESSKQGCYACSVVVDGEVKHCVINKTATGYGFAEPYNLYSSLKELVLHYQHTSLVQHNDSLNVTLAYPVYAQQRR
# T2 sequence (O00329 whole entry, species assumed): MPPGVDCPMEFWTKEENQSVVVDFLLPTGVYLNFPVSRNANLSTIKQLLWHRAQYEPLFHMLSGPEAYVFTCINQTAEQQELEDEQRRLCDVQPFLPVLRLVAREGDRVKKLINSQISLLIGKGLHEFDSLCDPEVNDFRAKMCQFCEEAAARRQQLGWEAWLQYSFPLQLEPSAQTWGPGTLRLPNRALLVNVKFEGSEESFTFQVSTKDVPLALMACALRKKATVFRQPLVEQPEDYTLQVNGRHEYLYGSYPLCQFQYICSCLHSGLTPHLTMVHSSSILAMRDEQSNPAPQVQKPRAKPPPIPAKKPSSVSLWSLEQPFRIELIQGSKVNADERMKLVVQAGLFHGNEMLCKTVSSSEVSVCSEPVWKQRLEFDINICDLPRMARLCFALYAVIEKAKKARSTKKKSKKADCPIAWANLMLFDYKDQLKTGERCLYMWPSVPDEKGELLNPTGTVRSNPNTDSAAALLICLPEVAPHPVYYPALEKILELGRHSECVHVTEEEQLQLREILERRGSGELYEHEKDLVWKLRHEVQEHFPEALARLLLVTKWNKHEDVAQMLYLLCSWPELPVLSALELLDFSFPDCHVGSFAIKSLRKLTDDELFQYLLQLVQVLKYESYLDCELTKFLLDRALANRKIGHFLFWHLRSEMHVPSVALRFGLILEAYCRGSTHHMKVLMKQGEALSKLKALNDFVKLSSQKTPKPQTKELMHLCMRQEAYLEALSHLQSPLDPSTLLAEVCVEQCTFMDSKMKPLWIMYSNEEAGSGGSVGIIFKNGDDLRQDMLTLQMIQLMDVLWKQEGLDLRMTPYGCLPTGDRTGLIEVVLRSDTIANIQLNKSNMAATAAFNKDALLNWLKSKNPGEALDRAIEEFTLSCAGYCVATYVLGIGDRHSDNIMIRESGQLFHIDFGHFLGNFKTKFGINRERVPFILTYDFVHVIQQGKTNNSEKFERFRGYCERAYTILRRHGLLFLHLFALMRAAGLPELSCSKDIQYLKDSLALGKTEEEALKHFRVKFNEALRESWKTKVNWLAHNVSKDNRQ
# T2 sequence (P27986 whole entry partner, species assumed): as the sequence (P27986 whole entry partner, species assumed) above
# T3 sequence (P48736 whole entry, species assumed): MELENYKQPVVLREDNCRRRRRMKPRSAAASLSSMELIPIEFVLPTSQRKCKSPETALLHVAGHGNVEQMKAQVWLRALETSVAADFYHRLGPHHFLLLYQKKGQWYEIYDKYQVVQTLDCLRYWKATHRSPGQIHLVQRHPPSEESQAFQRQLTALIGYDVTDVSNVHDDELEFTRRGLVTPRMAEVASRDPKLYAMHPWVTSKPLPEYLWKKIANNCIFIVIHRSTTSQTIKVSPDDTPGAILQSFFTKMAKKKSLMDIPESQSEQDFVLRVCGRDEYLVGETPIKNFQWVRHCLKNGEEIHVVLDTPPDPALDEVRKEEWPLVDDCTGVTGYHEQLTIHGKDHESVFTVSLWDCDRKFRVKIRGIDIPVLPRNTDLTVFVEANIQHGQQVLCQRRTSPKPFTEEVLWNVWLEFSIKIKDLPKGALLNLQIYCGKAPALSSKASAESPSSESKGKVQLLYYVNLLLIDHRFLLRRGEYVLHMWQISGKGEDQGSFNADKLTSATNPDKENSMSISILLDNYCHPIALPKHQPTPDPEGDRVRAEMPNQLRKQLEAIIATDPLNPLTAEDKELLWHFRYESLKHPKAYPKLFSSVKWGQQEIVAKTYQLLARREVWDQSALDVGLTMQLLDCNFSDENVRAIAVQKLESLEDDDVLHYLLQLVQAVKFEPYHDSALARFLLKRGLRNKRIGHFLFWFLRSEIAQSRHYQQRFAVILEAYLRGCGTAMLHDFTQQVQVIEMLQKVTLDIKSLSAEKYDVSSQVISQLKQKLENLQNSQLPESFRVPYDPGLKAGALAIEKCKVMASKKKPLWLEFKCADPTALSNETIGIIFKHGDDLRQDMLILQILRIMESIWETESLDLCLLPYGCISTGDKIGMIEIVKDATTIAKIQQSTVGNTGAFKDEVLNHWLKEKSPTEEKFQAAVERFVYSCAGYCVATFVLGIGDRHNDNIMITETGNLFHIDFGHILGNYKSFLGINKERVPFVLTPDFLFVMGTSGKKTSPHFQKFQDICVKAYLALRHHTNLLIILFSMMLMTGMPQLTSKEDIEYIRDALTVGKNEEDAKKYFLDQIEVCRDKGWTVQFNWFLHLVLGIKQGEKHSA
# Sequence of p110β (P42338 whole entry, species assumed): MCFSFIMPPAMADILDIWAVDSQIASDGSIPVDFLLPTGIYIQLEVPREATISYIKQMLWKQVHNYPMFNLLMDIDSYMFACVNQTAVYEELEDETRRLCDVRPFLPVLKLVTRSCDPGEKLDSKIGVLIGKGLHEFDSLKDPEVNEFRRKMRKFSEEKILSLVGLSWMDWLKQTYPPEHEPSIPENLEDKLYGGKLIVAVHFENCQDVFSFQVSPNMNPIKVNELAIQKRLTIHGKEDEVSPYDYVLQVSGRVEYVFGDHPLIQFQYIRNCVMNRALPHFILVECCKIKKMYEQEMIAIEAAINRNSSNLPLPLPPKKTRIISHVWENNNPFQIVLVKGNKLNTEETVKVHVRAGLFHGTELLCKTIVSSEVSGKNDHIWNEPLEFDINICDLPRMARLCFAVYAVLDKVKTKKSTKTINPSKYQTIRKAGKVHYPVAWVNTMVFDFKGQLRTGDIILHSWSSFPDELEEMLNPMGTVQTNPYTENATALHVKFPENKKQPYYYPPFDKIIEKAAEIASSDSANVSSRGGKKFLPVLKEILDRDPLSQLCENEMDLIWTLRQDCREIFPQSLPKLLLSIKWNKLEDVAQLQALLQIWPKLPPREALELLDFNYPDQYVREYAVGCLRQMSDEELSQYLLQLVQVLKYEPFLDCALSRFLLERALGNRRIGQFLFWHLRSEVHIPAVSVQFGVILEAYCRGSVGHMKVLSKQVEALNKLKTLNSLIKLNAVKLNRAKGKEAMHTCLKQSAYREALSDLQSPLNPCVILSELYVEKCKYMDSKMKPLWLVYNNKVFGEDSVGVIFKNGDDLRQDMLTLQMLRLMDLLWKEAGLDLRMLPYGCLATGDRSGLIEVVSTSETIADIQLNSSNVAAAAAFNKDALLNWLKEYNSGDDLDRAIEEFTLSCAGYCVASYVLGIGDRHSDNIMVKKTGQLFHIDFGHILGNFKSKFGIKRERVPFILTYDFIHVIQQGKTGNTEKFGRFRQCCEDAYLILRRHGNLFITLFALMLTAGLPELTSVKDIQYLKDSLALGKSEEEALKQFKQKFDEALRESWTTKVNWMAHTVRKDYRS
# Sequence of p110β (P27986 whole entry partner, species assumed): as the sequence (P27986 whole entry partner, species assumed) above
molecule,measurement,setting,value
O=c1cc(N2CCOCC2)oc2c(-c3ccccc3)cccc12 [LY294002],Effect on constitutive human neutrophil apoptosis,[1],without affecting the extent of constitutive neutrophil apoptosis
same,Cytoplasmic vacuolation of human neutrophils,[2],not apparent
same,Effect on reduced spontaneous apoptosis of neutrophils from exacerbating COPD patients,[3],failed to restore the ability of exacerbating patient-derived neutrophils to undergo apoptosis in a timely fashion
same,Effect on rhGM-CSF-mediated human neutrophil survival,[4]; inhibitor 10 µM,prevented rhGM-CSF-mediated human neutrophil survival
same,Effect on GM-CSF-induced PKB phosphorylation,[5],abolished
same,Vacuole formation or necrosis in murine neutrophils,[6],nor did it induce vacuole formation or necrosis
same,Concentration giving maximal effect on rmGM-CSF survival effect,[6]; [17],10 µM
same,Effect on rmGM-CSF cytoprotective (survival) effect in murine neutrophils,[6]; [18],abrogated the rmGM-CSF cytoprotective effect
same,Effect on constitutive murine neutrophil apoptosis,[6],had no effect on the rate of constitutive murine neutrophil apoptosis
O=c1[nH]c2ccccc2n1C1CCN(Cc2ccc(-c3nc4cc5nc[nH]c5cc4nc3-c3ccccc3)cc2)CC1 [AKT-i1/2],Effect on GM-CSF-mediated neutrophil survival,"[2]; increasing concentrations, morphology",suppresses GM-CSF-mediated neutrophil survival
Cc1ccccc1-n1c(Cn2cnc3c(N)ncnc32)nc2cccc(C)c2c1=O [IC87114],Effect on rhGM-CSF-mediated human neutrophil survival,[4]; [19],failed to abrogate GM-CSF mediated survival
CC(=O)c1ccc(-c2sc(NC(=O)NCCC(=O)NC(C)(C)C)nc2C)cc1 [NVS-PI3-4],IC50,[7]; [20],4000 nM
same,IC50,[7]; [21],710 nM
same,IC50,[8],250 nM
same,Effect on rhGM-CSF-mediated human neutrophil survival,[4]; [22],failed to affect GM-CSF-mediated survival
same,IC50,[9],1800 nM
same,IC50,[10],750 nM
Oc1cccc(-c2nc(N3CCOCC3)c3oc4ncccc4c3n2)c1 [PI-103],Morphological assessment of apoptosis in neutrophils treated with rhGM-CSF and inhibitor,[2]; PI-103 10 µM,did not reveal classical apoptotic morphology
same,Cytoplasmic vacuolation of human neutrophils,[2],extensive cytoplasmic vacuolation was seen
same,Effect on rhGM-CSF-mediated human neutrophil survival,[4]; inhibitor 10 µM,did indeed appear to inhibit the effects of rhGM-CSF on neutrophil apoptosis
same,Cell accessibility,[11],PI-103 (pan class I) ^*
same,Effect on GM-CSF-induced PKB phosphorylation,[5],abolished
same,Vacuole formation or necrosis in murine neutrophils,[6],did not exhibit significant vacuolation
same,Concentration giving maximal effect on rmGM-CSF survival effect,[6]; [17],3 µM
same,Effect on rmGM-CSF cytoprotective (survival) effect in murine neutrophils,[6]; [18],blocked the rmGM-CSF survival effect
same,"Effect on rmGM-CSF-induced survival, wild type neutrophils","[6]; PI-103 0.3 µM, C57BL/6, rmGM-CSF 0.1 ng/ml, 8 hours",had no effect on rmGM-CSF-induced survival of wild type neutrophils
same,"Effect on rmGM-CSF-induced survival, p110γKO and p110δKOγKO neutrophils","[6]; PI-103 0.3 µM, rmGM-CSF 0.1 ng/ml, 8 hours",attenuated the rmGM-CSF survival effect
same,Effect on constitutive murine neutrophil apoptosis,[6],did not affect constitutive apoptosis
same,IC50 against all PI3K Class I isoforms,[12],submicromolar range
CC#C[C@]1(O)CC[C@H]2[C@@H]3CCC4=CC(=O)CCC4=C3[C@@H](c3ccc(N(C)C)cc3)C[C@@]21C [RU-486],Effect on reduced spontaneous apoptosis of neutrophils from exacerbating COPD patients,[3],lack of effect
COC[C@H]1OC(=O)c2coc3c2[C@@]1(C)C1=C(C3=O)[C@@H]2CCC(=O)[C@@]2(C)C[C@H]1OC(C)=O [Wortmannin],Effect on rhGM-CSF-mediated human neutrophil survival,"[4]; inhibitor 100 nM, replenished during culture","blocked the anti-apoptotic effect of GM-CSF, although less completely than 10 µM LY294002"
same,Effect on GM-CSF-induced PKB phosphorylation,[5],abolished
"rhGM-CSF: Recombinant human granulocyte-macrophage colony stimulating factor, obtained from R&D Systems",Effect of rhGM-CSF on survival of neutrophils from exacerbating COPD patients,[3]; 10 ng/ml,caused a fully PI3K-dependent additional survival effect
same,Effect of GM-CSF on human neutrophil apoptosis,[4]; 6–24 h,delays human neutrophil apopotosis
Cc1cc(C(C)Nc2ccccc2)c2nc(N3CCOCC3)cc(=O)n2c1 (stereo not drawn) [TGX-221],Effect on rhGM-CSF-mediated human neutrophil survival,[4]; inhibitor 10 µM,failed to abrogate GM-CSF mediated survival
same,IC50,[13],100 nM
same,IC50,[14],5000 nM
same,IC50,[15],3500 nM
Cc1cc(C(C)Nc2ccccc2C(=O)O)c2nc(N3CCOCC3)cc(=O)n2c1 (stereo not drawn) [HBC-417],Effect on rhGM-CSF-mediated human neutrophil survival,[4]; [22],failed to affect GM-CSF-mediated survival
O=C1NC(=O)/C(=C\c2ccc3nccnc3c2)S1 [AS605240],Effect on rhGM-CSF-mediated human neutrophil survival,[4]; [19],failed to abrogate GM-CSF mediated survival
same,Cell accessibility,[11],AS605240 (γ) ^*
Cc1cc(NC(=O)CCNC(=O)Nc2nc(C)c(-c3ccc(-n4cccn4)cc3)s2)no1 [NVS-PI3-3],IC50,[7]; [20],525 nM
same,IC50,[7]; [21],44 nM
same,IC50,[8],600 nM
same,Effect on rhGM-CSF-mediated human neutrophil survival,[4]; [22],failed to affect GM-CSF-mediated survival
same,IC50,[9],180 nM
same,IC50,[10],3 nM
same,IC50,[16],310 nM
NC(=O)[C@@H]1CCCN1C(=O)Nc1nc2ccc(-c3cnc(N)c(C(F)(F)F)c3)cc2s1 [NVS-PI3-2],Effect on rhGM-CSF-mediated human neutrophil survival,[4]; [22],failed to affect GM-CSF-mediated survival
"rmGM-CSF: Recombinant mouse granulocyte-macrophage colony stimulating factor, purchased from Peprotech (protein, UniProt P01587 18-141, looked up) Granulocyte-macrophage …: APTRSPITVTRPWKHVEAIKEALNLLDDMPVTLNEEVEVVSNEFSFKKLTCVQTRLKIFEQGLRGNFTKLKGALNMTASYYQTYCPPTPETDCETQVTTYADFIDSLKTFLTDIPFECKKPGQK",EC50 for delay of murine neutrophil apoptosis,"[6]; C57BL/6 peripheral blood neutrophils, 8 hour, AnV/PI flow cytometry",0.0075 ng/mL
same,Effect on murine neutrophil apoptosis,"[6]; concentration-dependent, all time points studied (0–12 h)",significantly delayed
